Columns and labels:
[1] = biological target: T1, Cdk10/CycQ (Homo sapiens, UniProt Q15131); test: Radiometric kinase assay, inhibition of Cdk10/CycQ (c-MYC substrate); format: biochemical; conditions: for Times more potent towards Cdk9 than Cdk10: ratio of IC50 values Cdk10 vs Cdk9; for Cross reactivity with Cdk10 (effect of inhibitor on Cdk10): at conditions that result in full inhibition of their primary target, supplementary figure S3
T1 construct: We expressed the human full-length Cdk10/CycQ complex in Sf9 insect cells; MBP (followed by TEV site) (N, cleaved yes); made in house; host or cells: Sf9 insect cells (baculovirus); c-MYC substrate from E. coli BL21 pLysS
T1 sequence (Q15131 whole entry): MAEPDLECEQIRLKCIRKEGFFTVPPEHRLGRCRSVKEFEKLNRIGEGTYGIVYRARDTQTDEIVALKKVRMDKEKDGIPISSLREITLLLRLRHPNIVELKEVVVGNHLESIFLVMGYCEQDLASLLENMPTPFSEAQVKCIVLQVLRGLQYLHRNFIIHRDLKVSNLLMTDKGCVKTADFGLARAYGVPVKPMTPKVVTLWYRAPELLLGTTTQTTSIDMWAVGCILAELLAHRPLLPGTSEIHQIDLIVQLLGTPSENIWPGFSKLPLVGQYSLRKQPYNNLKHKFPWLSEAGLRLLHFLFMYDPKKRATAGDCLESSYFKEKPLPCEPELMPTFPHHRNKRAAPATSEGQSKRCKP
T1 sequence (Q8N1B3 whole entry partner): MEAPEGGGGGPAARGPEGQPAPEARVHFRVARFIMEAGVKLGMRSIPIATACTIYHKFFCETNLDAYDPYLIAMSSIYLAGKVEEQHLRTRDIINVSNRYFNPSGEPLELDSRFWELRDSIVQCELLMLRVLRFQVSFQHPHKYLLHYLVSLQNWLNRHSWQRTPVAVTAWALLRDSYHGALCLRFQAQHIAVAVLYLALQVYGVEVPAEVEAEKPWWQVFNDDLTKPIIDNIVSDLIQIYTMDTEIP
Description: Figure 3. […] (a) Chemical structures of the inhibitors tested against Cdk10/CycQ.
Kinase assays with recombinant proteins were performed in kinase assay buffer (50 mM Hepes pH7.6, 34 mM KCl, 7 mM MgCl2, 5 mM β-Glycerophosphate, 2.5 mM DTE). If not indicated otherwise, reactions contained 0.2 µM kinase, were started by the addition of ATP to 1 mM final concentration and incubated at 30°C in a shaking incubator.
For quantitative analysis, radioactive kinase assays were performed. Reactions were done in a total volume of 15 µl per sample. If not indicated otherwise, reactions contained 0.2 µM kinase, were started by addition of ATP to 1 mM containing 0.34 µCi γ[^32P] (Perkin Elmer) and incubated at 30°C in a shaking incubator. Reactions were stopped by adding EDTA to a final concentration of 50 mM. Samples were spotted onto Amersham Protran nitrocellulose membrane (GE Healthcare) filter sheets. Filters were washed three times for 5 min with PBS to remove free, non-reacted ATP. Samples were transferred to 4 ml liquid scintillation vials and immersed in 2 ml liquid scintillator (UltimaGold). Radioactivity was counted in a Beckman Liquid Scintillation Counter (Beckman-Coulter) for 1 min.
All compounds were solved at a stock concentration of 10 mM in DMSO and further pre-diluted in DMSO for dose–response measurement. For IC50 determination radioactive kinase assays were run as described above in presence of increasing concentration of inhibitor. For analysis, the data were normalized to the DMSO solvent control and the activity plotted against the inhibitor concentration. IC50 values were determined from duplicate measurements by sigmoidal curve fitting with a variable slope using GraphPadPrism, v.

[2] = test system: Cdk10; set-up: method as in PMID 29251720; conditions: MOLT4 lysates; cited from earlier work
[3] = biological target: T1, Cdk10/CycQ; test: Radiometric kinase assay, inhibition of Cdk10/CycQ (c-MYC substrate); format: biochemical; conditions: 200 nM kinase, 1 mM ATP, 5 mM Mg2+, 50 µM c-MYC (17-167) as substrate
[4] = biological target: T2, Cdk9 (Homo sapiens, UniProt P50750); test: Radiometric kinase assay, inhibition of Cdk9 (c-MYC substrate); format: biochemical; conditions: 200 nM kinase, 1 mM ATP, 5 mM Mg2+, 50 µM c-MYC (17-167) as substrate
T2 construct: His; made in house; host or cells: Cdk9 in Sf9 insect cells; CycT1 (1-272) in E. coli
T2 sequence (P50750 whole entry, species assumed): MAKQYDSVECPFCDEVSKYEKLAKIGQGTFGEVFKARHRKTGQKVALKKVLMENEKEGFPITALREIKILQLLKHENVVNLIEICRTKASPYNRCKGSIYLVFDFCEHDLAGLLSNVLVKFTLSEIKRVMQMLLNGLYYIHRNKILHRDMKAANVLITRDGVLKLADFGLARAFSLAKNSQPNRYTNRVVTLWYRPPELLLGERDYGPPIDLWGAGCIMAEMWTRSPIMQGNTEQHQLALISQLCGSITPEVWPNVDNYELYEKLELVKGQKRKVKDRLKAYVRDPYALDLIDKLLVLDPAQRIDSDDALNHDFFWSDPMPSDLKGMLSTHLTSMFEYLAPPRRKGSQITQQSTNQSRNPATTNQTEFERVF
T2 sequence (O60563 1-272 partner limits assumed, species assumed): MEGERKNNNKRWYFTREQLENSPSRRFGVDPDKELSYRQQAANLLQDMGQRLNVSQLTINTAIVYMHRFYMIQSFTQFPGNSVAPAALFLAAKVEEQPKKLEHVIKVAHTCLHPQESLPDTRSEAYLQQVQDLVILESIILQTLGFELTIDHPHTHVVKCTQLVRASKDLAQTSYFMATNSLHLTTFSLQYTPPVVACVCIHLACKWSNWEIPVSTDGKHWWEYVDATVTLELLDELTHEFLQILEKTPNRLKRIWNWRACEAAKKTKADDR

[5] = test system: Cdk10; set-up: method as in PMID 29251720; conditions: cited from earlier work

| Times more potent towards Cdk9 than Cdk10 [1] | Cross reactivity with Cdk10 (effect of inhibitor on Cdk10) [1] | Structure (SMILES) | also measured |
| --- | --- | --- | --- |
| at least 5 times |  | COCC(C)NC1CCC(Nc2cc(-c3cccc(NCC4(C#N)CCOCC4)n3)c(Cl)cn2)CC1 (centres unmarked) [NVP-2] | Binding to Cdk10 [2]: identified binding to Cdk10; IC50 [3]: 1040 nM; IC50 [4]: 58 nM |
|  |  | Cc1cc(O)c(-c2ccc([C@@H](C)CN(C)C)cc2)c2c1[nH]c(=O)c1sccc12 [OTS964] | IC50 [3]: 5370 nM; IC50 [4]: 138000 nM |
| at least 5 times |  | CC(C)(C)c1cnc(CSc2cnc(NC(=O)C3CCNCC3)s2)o1 [SNS-032] | Binding to Cdk10 [2]: identified binding to Cdk10 |
|  |  | CC(C)(C)c1cnc(CSc2cnc(NC(=O)C3CCN(CC(=O)NCCOCCOCCOCCNc4cccc5c4C(=O)N(C4CCC(=O)NC4=O)C5=O)CC3)s2)o1 (centres unmarked) [THAL-SNS-032] | Degradation of Cdk10 [5]: degrades Cdk10 only after a longer incubation period |
|  | did not observe any considerable effect | CN(C)C/C=C/C(=O)Nc1ccc(C(=O)Nc2cccc(Nc3ncc(Cl)c(-c4c[nH]c5ccccc45)n3)c2)cc1 [THZ-1] |  |
|  | did not observe any considerable effect | CN(C)C/C=C/C(=O)Nc1ccc(C(=O)N2CCC[C@@H](Nc3ncc(Cl)c(-c4c[nH]c5ccccc45)n3)C2)cc1 [THZ-531] |  |
|  | did not observe any considerable effect | C=CC(=O)Nc1ccc(C(=O)Nc2[nH]nc3c2CN(C(=O)N[C@H](CN(C)C)c2ccccc2)C3(C)C)cc1 [YKL-5-124] |  |
|  | did not observe any considerable effect | CCN1CCN(Cc2ccc(Nc3ncc(F)c(-c4cc(F)c5nc(C)n(C(C)C)c5c4)n3)nc2)CC1 [abemaciclib] |  |
| at least 5 times |  | CCc1cnn2c(NCc3ccc[n+]([O-])c3)cc(N3CCCC[C@H]3CCO)nc12 [dinaciclib] | IC50 [3]: 298 nM |
| at least 5 times |  | CN1CC[C@H](c2c(O)cc(O)c3c(=O)cc(-c4ccccc4Cl)oc23)[C@H](O)C1 [flavopiridol] |  |
|  | did not observe any considerable effect | CC(=O)c1c(C)c2cnc(Nc3ccc(N4CCNCC4)cn3)nc2n(C2CCCC2)c1=O [palbociclib] |  |
